{"source": "patent US8633204B2", "about": "(Pfizer Inc., priority 2006, dated 2014)", "test_system": "phosphorylation of AKT on S473 in SKOV3 tumors", "assay": "In vivo target modulation study, SKOV3 tumors", "set-up": "species or system mouse", "experimental": "In vivo target modulation studies to determine the effect of Compound 152 treatment on the phosphorylation of AKT on S473 by ELISA and S6 on S235/S236 by IHC were performed. Resected tumors were frozen on dry ice and pulverized using the FAST PREP instrument (Qbiogene). Briefly, frozen tumors were placed in Fast Prep matrix tubes, cold lysis buffer [20 mM HEPES (pH 7.5), 150 mM NaCl, 1.0 mM sodium EDTA, 1% Triton X-100, 2.5 mM sodium pyrophosphate, 1 mM sodium orthovanadate, 1 μg/ml leupeptin, and 1 mM PMSF] was added and samples were centrifuged for 5 sec, mixed and process repeated two more times. Samples were centrifuged in a cold refrigerated Eppendorf centrifuge at 14,000 RPM for 20 min. Supernatant was collected and total and phosphoAKT (S473) protein levels determined by ELISA. The extent of phosphorylation in tumors resected from treated animals was compared with that in tumors resected from vehicle-treated animals at the same time point. Plasma samples, obtained by centrifuging individual blood samples at 3000×g for 5 min at 4° C. in an Eppendorf 5417R centrifuge, were stored at −80° C. until they could be analyzed for drug concentration. Briefly, plasma samples (50 μl) or Compound 152 standards in mouse plasma were mixed with acetonitrile […]) and injected onto a LC/MS/MS system where separation occurred on a C-18 SB phenyl (5 μM, 2.1×50 mm, Agilent) reverse-phase high-performance liquid chromatography column. The amount of inhibitor and the internal standard (0.5 μM buspirone) in each mouse plasma sample was quantified based on standard curves generated using known amounts of compound. […] Time course and dose response of in vivo target modulation and plasma inhibitor concentrations were determined post last dose at the end of the efficacy study described above and data are summarized in Table 4.", "data": [{"smiles": "COc1ccc(-c2cc3c(C)nc(N)nc3n([C@H]3CC[C@H](O)CC3)c2=O)cn1", "note": "[Compound 152, 2-amino-8-(trans-4-hydroxycyclohexyl)-6-(6-methoxypyridin-3-yl)-4-methylpyrido[2,3-d]pyrimidin-7(8H)-one]", "values": [{"measurement": "p-Akt/Akt(%)", "setting": "SKOV3, 0.5 mg/kg, 3 h post last dose", "result": "30 ± 3", "unit": "%"}, {"measurement": "p-Akt/Akt(%)", "setting": "SKOV3, 0.5 mg/kg, 7 h post last dose", "result": "55 ± 4", "unit": "%"}, {"measurement": "p-Akt/Akt(%)", "setting": "SKOV3, 0.5 mg/kg, 24 h post last dose", "result": "147 ± 21", "unit": "%"}, {"measurement": "p-Akt/Akt(%)", "setting": "SKOV3, 1 mg/kg, 3 h post last dose", "result": "27 ± 6", "unit": "%"}, {"measurement": "p-Akt/Akt(%)", "setting": "SKOV3, 1 mg/kg, 7 h post last dose", "result": "48 ± 17", "unit": "%"}, {"measurement": "p-Akt/Akt(%)", "setting": "SKOV3, 1 mg/kg, 24 h post last dose", "result": "124 ± 10", "unit": "%"}, {"measurement": "p-Akt/Akt(%)", "setting": "SKOV3, 2 mg/kg, 3 h post last dose", "result": "23 ± 5", "unit": "%"}, {"measurement": "p-Akt/Akt(%)", "setting": "SKOV3, 2 mg/kg, 7 h post last dose", "result": "30 ± 13", "unit": "%"}, {"measurement": "p-Akt/Akt(%)", "setting": "SKOV3, 2 mg/kg, 24 h post last dose", "result": "126 ± 20", "unit": "%"}, {"measurement": "inhibition of pAKT at S473", "setting": "SKOV3 tumors in vivo", "result": "dose dependent inhibition"}]}]}
